Reference: paper PMC8048572, “Release of Soybean Isoflavones by Using a β‐Glucosidase from Alicyclobacillus herbarius” (Chembiochem, 2020)
Values belong to the molecule of their own block, whether it stands above or below them.

What was measured:
AheGH1 [1] = molecular target: T1, AheGH1 (Paenalicyclobacillus herbarius, UniProt A0A8I3B065); experiment: spectrophotometric pNPG hydrolysis at […] nm; assay type: biochemical; settings: 10 mM pNPG, 50 mM HEPES, pH 7.4, 25 °C; product inhibitor
T1 construct: codon-optimised synthetic gene, C-terminal poly-His tag (pCH93b), E. coli BL21(DE3)
T1 sequence (A0A8I3B065 1-452): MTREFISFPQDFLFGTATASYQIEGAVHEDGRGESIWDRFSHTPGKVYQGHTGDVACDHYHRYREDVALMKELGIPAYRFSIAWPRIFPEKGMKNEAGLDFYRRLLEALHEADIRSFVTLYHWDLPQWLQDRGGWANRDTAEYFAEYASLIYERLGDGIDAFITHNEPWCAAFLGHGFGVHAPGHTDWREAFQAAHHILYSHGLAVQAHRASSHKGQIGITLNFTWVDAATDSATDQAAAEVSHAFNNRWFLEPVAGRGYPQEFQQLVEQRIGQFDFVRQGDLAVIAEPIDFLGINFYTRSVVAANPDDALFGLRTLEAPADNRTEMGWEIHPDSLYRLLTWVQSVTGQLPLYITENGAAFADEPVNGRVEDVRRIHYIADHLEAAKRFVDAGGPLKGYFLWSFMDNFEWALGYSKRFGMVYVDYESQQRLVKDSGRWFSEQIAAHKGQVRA

AheGH1 [2] = molecular target: T1, AheGH1; experiment: spectrophotometric p-nitrophenol release at […] nm, substrate inhibition fit; assay type: biochemical; settings: 50 mM HEPES, pH 7.4, 25 °C; substrate inhibition constant
purified protein = substrate: O=[N+]([O-])c1ccc(O[C@@H]2O[C@H](CO)[C@@H](O)[C@H](O)[C@H]2O)cc1; experiment: purified protein; settings: 50 mM HEPES, pH 7.4, 25 °C

% activity retained at 10 % (w/v) glucose (AheGH1 [1]): 65%
Molecule: OC[C@H]1OC(O)[C@H](O)[C@@H](O)[C@@H]1O (stereo partly shown) [glucose]

K i (AheGH1 [2]): 37 ± 6 mM
Molecule: O=[N+]([O-])c1ccc(O[C@@H]2O[C@H](CO)[C@@H](O)[C@H](O)[C@H]2O)cc1 [pNPG, p‐nitrophenyl‐β‐D‐glucopyranoside]

B1: AheGH1 (Paenalicyclobacillus herbarius) (protein)
chain: T1 sequence (A0A8I3B065 1-452)
Km (purified protein): 1400 ± 100 µM | kcat (purified protein): 2.7 ± 0.1 s⁻¹
